Measured values as given in US7605168B2 (Plexxikon, Inc., priority 2004, dated 2009).

Assays:
[1] = tested on: TNF-α release from whole blood cultures stimulated with LPS; assay: IC50 by TNF alpha production upon stimulation of whole blood cultures with LPS; assay type: cell-based; conditions: human whole blood (buffy coat) culture, 100 ng/ml LPS, 4 hours; read-out: h TNFα IC50
In short: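 Human buffy coat, diluted with 7 volumes of RPMI/2.5% heat-inactivated FBS, was preincubated with compound (8-point 1:3 series) for 1 h at 37 °C. It was then stimulated with 100 ng/ml LPS (final) for 4 h. Supernatant TNF-α was measured by sandwich ELISA at 450 nm, and IC50 was set between DMSO (0%) and PDE4-inhibitor (100%) controls.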

[2] = biological target: T1, PDE4B: catalytic domain of human PDE4B from S152-S528 (Homo sapiens, UniProt Q07343); assay: PDE4 IC50 determination by Scintillation Proximity Assay (SPA), PDE4B catalytic domain; assay type: biochemical; conditions: [3H]cAMP SPA, 30 min at 30° C.
T1 construct: The catalytic domain of human PDE4B from S152-S528; His6 (N, cleaved yes); thrombin cleavage site (N, cleaved yes); made in house; host or cells: E. coli BL21 (DE3) RIL
T1 sequence (Q07343 324-700): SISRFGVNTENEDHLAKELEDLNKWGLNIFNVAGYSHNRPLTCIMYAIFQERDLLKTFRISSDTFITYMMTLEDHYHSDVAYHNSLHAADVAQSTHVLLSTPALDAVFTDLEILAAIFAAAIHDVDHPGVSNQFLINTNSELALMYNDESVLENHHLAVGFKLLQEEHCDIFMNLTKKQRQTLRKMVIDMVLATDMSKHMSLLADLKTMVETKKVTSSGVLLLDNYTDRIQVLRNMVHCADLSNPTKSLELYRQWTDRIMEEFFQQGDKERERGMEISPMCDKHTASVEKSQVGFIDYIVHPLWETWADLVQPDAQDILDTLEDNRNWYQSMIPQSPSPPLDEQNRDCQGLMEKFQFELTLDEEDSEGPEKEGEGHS
In short: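 Human PDE4B catalytic domain (80 ng/ml) hydrolysed [3H]cAMP in 50 mM Tris pH 7.5, 8.3 mM MgCl, 1.7 mM EGTA, 0.01% BSA for 30 min at 30 °C. Reaction was stopped with yttrium silicate SPA beads in 18 mM ZnSO4, and bound [3H]AMP was counted by scintillation. IC50 came from non-linear regression.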

[3] = biological target: T2, PDE4B2: full-length human PDE4B2 isozyme (Homo sapiens, UniProt Q07343); assay: PDE4 IC50 determination by Scintillation Proximity Assay (SPA), full-length PDE4B2; assay type: biochemical; conditions: cell lysate, [3H]cAMP SPA
T2 construct: made in house; host or cells: baculovirus infected insect cells (pFastBacHT)
T2 sequence (Q07343 with tags, fused parts or gaps isoform Q07343-2): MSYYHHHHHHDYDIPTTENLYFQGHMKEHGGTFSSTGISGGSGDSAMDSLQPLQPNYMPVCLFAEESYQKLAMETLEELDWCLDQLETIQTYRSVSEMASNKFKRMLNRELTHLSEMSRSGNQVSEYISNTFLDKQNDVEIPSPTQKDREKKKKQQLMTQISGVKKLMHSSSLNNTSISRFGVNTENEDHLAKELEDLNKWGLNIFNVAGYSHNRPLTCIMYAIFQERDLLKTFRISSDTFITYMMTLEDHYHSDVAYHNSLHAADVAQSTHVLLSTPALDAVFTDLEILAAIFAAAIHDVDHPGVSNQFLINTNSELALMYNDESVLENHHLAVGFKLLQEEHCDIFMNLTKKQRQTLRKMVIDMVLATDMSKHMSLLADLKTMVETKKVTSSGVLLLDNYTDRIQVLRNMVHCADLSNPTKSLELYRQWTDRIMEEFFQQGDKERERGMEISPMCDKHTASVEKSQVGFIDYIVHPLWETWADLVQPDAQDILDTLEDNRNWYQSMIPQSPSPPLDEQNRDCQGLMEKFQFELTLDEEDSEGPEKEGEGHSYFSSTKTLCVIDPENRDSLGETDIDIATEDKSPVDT
In short: (§1)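 Unpurified enzyme from cell lysates (PDE4B2 2.5 μl, PDE4D5 0.083 μl of 50% glycerol stock/ml) hydrolysing [3H]cAMP in 50 mM Tris pH 7.5, 8.3 mM MgCl, 1.7 mM EGTA, 0.01% BSA, 30 min at 30 °C. Stopped with yttrium silicate SPA beads in 18 mM ZnSO4; bead-bound [3H]AMP counted. IC50 by non-linear regression.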

[4] = biological target: T3, PDE4D5: full-length human PDE4D5 isozyme (Homo sapiens, UniProt Q08499); assay: PDE4 IC50 determination by Scintillation Proximity Assay (SPA), full-length PDE4D5; assay type: biochemical; conditions: cell lysate, [3H]cAMP SPA
T3 construct: made in house; host or cells: baculovirus infected insect cells (pFastBacHT)
T3 sequence (Q08499 with tags, fused parts or gaps isoform Q08499-6): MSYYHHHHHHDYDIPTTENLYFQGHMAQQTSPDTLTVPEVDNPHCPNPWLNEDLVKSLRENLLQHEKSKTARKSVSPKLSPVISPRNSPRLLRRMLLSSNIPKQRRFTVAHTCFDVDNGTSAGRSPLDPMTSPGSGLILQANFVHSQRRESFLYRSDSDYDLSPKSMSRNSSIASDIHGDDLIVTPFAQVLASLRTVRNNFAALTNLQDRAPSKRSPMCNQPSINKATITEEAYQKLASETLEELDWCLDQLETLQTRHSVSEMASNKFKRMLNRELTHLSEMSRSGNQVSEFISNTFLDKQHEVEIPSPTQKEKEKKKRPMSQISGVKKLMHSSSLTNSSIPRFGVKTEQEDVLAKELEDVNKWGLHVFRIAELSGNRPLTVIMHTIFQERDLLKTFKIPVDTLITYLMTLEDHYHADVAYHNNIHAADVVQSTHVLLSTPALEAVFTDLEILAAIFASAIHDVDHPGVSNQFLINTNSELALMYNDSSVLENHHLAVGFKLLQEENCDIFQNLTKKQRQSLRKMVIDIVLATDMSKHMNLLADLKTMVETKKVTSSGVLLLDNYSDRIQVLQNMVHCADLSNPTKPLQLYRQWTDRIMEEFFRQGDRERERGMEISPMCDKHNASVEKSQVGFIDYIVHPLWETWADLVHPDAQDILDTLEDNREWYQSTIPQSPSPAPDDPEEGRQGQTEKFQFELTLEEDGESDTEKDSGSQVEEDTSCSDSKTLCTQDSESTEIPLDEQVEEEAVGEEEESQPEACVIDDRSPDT
In short: as §1

[5] = tested on: TNFα levels in serum of LPS-challenged rats; assay: Rat inhibition studies: serum TNFα after iv LPS challenge; assay type: in vivo; conditions: LPS 0.1 mg/kg iv 2 h after dosing, percent decrease in serum TNFα versus vehicle, read-out: % inhibition r TNFα; for inhibition in vivo at 5 mg/kg: 5 mg/kg po
Description: All studies were done with male rats CD (SD) IGS BR (Crl) (Charles River, France), which were grouped in to 5 animal groups.
At the end of the acclimatization period, the non-fasted rats were weighed, individually identified on the tail with a permanent marker and administered by oral (po) or interperitoneal (ip) route with either vehicle, reference or test compound in a volume of 10 mL/kg adapted to the body weight. The animals were gathered in groups of 5 animals in a polystyrene labeled cage with sawdust covered floors. 2-hours after vehicle, reference or test substance administration, rats received an intravenous (iv) injection of 0.1 mg/kg LPS in a volume of 1 mL/kg of body weight. 2 h after LPS challenge (or as indicated in Tables 3B and 4B), blood samples were collected into tubes without anticoagulant by retro-orbital puncture under gas (isoflurane) anesthesia. Samples were allowed to clot at room temperature for 5 to 10 min then put on ice until there were prepared by centrifugation (6000×g for 3 min at 4° C.) and stored at −20° C. until use. TNFα levels were measured in serum samples in duplicate by ELISA technique according to the manufacturer's procedure (Rat TNFα kit Quantikine M (RTA00, R&D System, France)). Data are reported as percent decrease in observed TNFα levels versus TNFα levels observed for vehicle dosed animal groups.

## COc1ccc(-c2cn(S(=O)(=O)c3cccc4cccnc34)c3ncccc23)cc1OC [Compound 7, 8-[3-(3,4-dimethoxy-phenyl)-pyrrolo[2,3-b]pyridine-1-sulfonyl]-quinoline]
[1]
  IC50: ≤ 10 µM
[2]
  IC50: < 10 µM
[3]
  IC50: < 10 µM
[4]
  IC50: < 10 µM
[5]; 50 mg/kg po or ip
  inhibition in vivo at 50 mg/kg: ≥ 20%

## CCOc1ccc2ccccc2c1C(=O)n1ccc2c(-c3ccc(OC)c(OC)c3)ccnc21 [Compound 48, [4-(3,4-Dimethoxy-phenyl)-pyrrolo[2,3-b]pyridin-1-yl]-(2-ethoxy-naphthalen-1-yl)-methanone]
[1]
  IC50: ≤ 10 µM
[2]
  IC50: < 10 µM
[3]
  IC50: < 10 µM
[4]
  IC50: < 10 µM
[5]
  inhibition in vivo at 5 mg/kg: ≥ 20%

## CCOc1ccccc1C(=O)n1ccc2cc(-c3ccc(OC)c(OC)c3)cnc21 [Compound 83, [5-(3,4-Dimethoxy-phenyl)-pyrrolo[2,3-b]pyridin-1-yl]-(2-ethoxy-phenyl)-methanone]
[1]
  IC50: ≤ 10 µM
[2]
  IC50: < 10 µM
[3]
  IC50: < 10 µM
[4]
  IC50: < 10 µM
[5]
  inhibition in vivo at 5 mg/kg: ≥ 20%

## COc1ccc(-c2cn(C(=O)c3ccccc3OC(C)=O)c3ncccc23)cc1OC [Compound 110, Acetic acid 2-[3-(3,4-dimethoxy-phenyl)-pyrrolo[2,3-b]pyridine-1-carbonyl]-phenyl ester]
[1]
  IC50: ≤ 10 µM
[2]
  IC50: < 10 µM
[3]
  IC50: < 10 µM
[4]
  IC50: < 10 µM
[5]
  inhibition in vivo at 5 mg/kg: ≥ 20%

## COc1ccc(-c2cn(C(=O)c3c(OCC(F)(F)F)ccc4ccccc34)c3ncccc23)cc1OC [Compound 112, [3-(3,4-Dimethoxy-phenyl)-pyrrolo[2,3-b]pyridin-1-yl]-[2-(2,2,2-trifluoro-ethoxy)-naphthalen-1-yl]-methanone]
[3]
  IC50: < 10 µM
[4]
  IC50: < 10 µM
[5]; 3 mg/kg po
  inhibition in vivo at 3 mg/kg: ≥ 20%

## COc1ccc(-c2ccnc3c2ccn3S(=O)(=O)c2cccc3cccnc23)cc1OC [Compound 126, 8-[4-(3,4-Dimethoxy-phenyl)-pyrrolo[2,3-b]pyridine-1-sulfonyl]-quinoline]
[1]
  IC50: ≤ 10 µM
[2]
  IC50: < 10 µM
[3]
  IC50: < 10 µM
[4]
  IC50: < 10 µM
[5]
  inhibition in vivo at 5 mg/kg: ≥ 20%
